{"source": "paper PMC10055906", "about": "(Chemical Science, 2023)", "origin": "cited, not measured here", "target": "FGF2 (Homo sapiens, UniProt P09038)", "sequence (P09038 134-288)": "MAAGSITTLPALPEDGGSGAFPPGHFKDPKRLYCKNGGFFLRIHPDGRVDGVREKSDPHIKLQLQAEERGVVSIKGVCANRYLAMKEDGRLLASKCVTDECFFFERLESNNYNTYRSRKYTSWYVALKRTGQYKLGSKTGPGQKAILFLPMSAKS", "settings": "read-out: KD (FGF2 affinity)", "data": [{"substance": "IdoA-GlcNS(6S)-IdoA(2S)-GlcNS(6S)", "values": [{"measurement": "Kd", "result": 1.2, "unit": "µM"}]}]}
